# Literature values in publication PMC2804221 (The Journal of Biological Chemistry, 2009).
# pIC50: −log10 of the molar value.
substance,measurement,setting,value
"Exendin-4(9–39): truncated form of exendin-4, and a competitive antagonist",pIC50,isolated ECD of GLP-1R,8.22
same,mode of action at GLP-1R,GLP-1R,competitive antagonist
